Results: patent US20210253598A1, “ARYL ANNULATED MACROCYCLIC INDOLE DERIVATIVES” (priority 2017, published 2021)
Where “and” joins values, the source holds several entries; their conditions need not be identical. Identical values can stand only once. Counter-ions that a name gives are not always drawn. Like-named read-outs stand apart in the source and are kept apart here.

Experiments:
[1] = system: MV-4-11; assay: Anti-proliferative effect in MV-4-11 cells, CellTiter-Glo (Assay 7); assay type: cell-based
How it was run: (§1)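 Overnight seeding at 37 °C, then 72 h treatment with compound; day 0 plate read at start. Luminescent ATP-based viability readout (CellTiter-Glo). IC50 normalised between day 0 and DMSO values.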

[2] = target: MCL-1 (Homo sapiens, UniProt Q07820, K194A/K197A/R201A); assay: Protein-compound interaction assay, surface plasmon resonance (SPR assay, Assay 8); assay type: binding; conditions: for Kd: SPR, immobilized MBP-MCL-1, 25° C.
Chain of MCL-1 (Q07820 173-321 K194A/K197A/R201A, looked up): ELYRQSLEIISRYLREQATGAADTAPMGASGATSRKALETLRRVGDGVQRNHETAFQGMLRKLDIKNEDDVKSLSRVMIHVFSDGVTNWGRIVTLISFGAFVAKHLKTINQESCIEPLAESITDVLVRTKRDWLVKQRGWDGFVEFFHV
Source text: Protein-Compound Interaction Assay (SPR Assay)
The ability of the compounds described in this invention to bind to MCL-1 may be determined using surface plasmon resonance (SPR). This allows for the quantification of binding in terms of the equilibrium dissociation constant (KD [M]), as well as association and dissociation rate constants (kon [1/M 1/s] and koff [1/s], respectively). The measurements may be performed using Biacore® T200 or Biacore® S200 instruments (GE Healthcare).
Briefly, carboxymethylated dextran biosensor chips (Series S Sensor Chip CM5, GE Healthcare) were activated with 1-ethyl-3-(3-dimethylaminopropyl)-carbodiimide hydrochloride (EDC) and N-hydroxysuccinimide (NHS) according to the supplier's instructions. MBP-MCL-1 was diluted in 1×PBS-P+ (GE Healthcare) and injected on the activated chip surface. Subsequently, a solution of 1 M ethanolamine-HCl (GE Healthcare) was injected to block unreacted groups, resulting in approximately 400-2500 response units (RU) of immobilized protein. A reference surface was generated by treatment with NHS-EDC and ethanolamine-HCl. […] Compounds were injected for 60 s followed by a dissociation time of up to 1000 s.
The double-referenced sensorgrams were fit to a simple reversible Langmuir 1:1 reaction mechanism as implemented in the Biacore® T200 and S200 evaluation software (T200 evaluation software version 2.0 and S200 evaluation software version 1.0, GE Healthcare).

[3] = target: BCL-2 (Homo sapiens, UniProt P10415); assay: Protein-protein interaction assay BCL-2/Bad BH3 peptide, TR-FRET (BCL-2 assay, Assay 3); assay type: binding; conditions: His-BCL-2 / Bad BH3 peptide, median
Chain of BCL-2 (P10415 1-211): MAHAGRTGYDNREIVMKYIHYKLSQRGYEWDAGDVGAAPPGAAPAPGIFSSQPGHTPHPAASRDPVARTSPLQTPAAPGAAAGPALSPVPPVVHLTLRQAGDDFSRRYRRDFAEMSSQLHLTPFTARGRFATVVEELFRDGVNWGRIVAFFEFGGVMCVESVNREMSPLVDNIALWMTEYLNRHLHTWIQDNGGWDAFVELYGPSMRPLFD
Experimental: The dose-dependent inhibition by the compounds described in this invention of the interaction between BCL-2 and the BH3 domain of Bad (both human) was determined using a steady state binding competition assay with time-resolved fluorescence energy transfer (TR-FRET) readout. For that purpose BCL-2 (amino acids 1-211, C-terminal fused to a hexahistidine (6×His) tag (SEQ ID 5) and a synthetic Bad BH3-derived peptide of sequence Biotin-PEG2-PEG2-[sequence]-Nle-[sequence]-amide (SEQ ID 4) served as protein receptor and tracer ligand respectively. The recombinant BCL-2 protein (expressed in E. coli) was purchased from BPS Bioscience (San Diego, Calif., USA). The Bad BH3-derived peptide can be obtained from e.g. Biosyntan (Berlin, Germany).
For that, 100-fold concentrated DMSO solutions were prepared by serial dilutions (1:3.4) of a 2 mM stock solution in a clear, 384-well microtiter plate (Greiner Bio-One, Frickenhausen, Germany). From there, 50 nl were transferred in a dark test plate (Greiner Bio-One, Frickenhausen, Germany). The assay was initiated by addition of 2 μl of a 2,5-fold concentrated His-BCL-2 solution (usually for a 1 nM end concentration in 5 μl reaction volume) in aqueous assay buffer [50 mM Tris/HCl pH 7, 100 mM sodium chloride (NaCl), 50 mM potassium fluoride (KF), 0.005% Tween-20, 2 mM DTT, 0.1% bovine gamma globulin (BGG)] to the compounds in the assay plate. This was followed by a 10-minute incubation step at 22° C. for pre-equilibration of the putative complex between His-BCL-2 and the compounds.
The mixture was incubated in the dark for one hour at 22° C. and then overnight at 4° C. The formation of BCL-2/Bad complexes was determined by measuring the resonance energy transfer of the anti-His-Eu-cryptate antibody to the streptavidin-XL665 present in the reaction. For that purpose, the fluorescence emission at 620 nm and 665 nm after excitation at 330-350 nm was measured in a TR-FRET measuring instrument, for instance a Rubystar or a Pherastar (both from BMG Lab Technologies, Offenburg, Germany) or a Viewlux (Perkin-Elmer). The ratio of the emission at 665 nm and at 622 nm was used as indicator of the amount of BCL-2/Bad complexes present.
The resulting data (ratio) were normalized, taking 0% inhibition as the mean value of control measurements (usually 32 data points) where all reagents were included. In this case 50 nl DMSO were used instead of compounds. […] IC50 values were determined by regression analysis based on a 4 parameter equation (minimum, maximum, IC50, Hill; Y=Max+(Min−Max)/(1+(X/IC50)^Hill) using the Screener Software (Genedata).

[4] = target: T1, MCL1 protein (Homo sapiens, UniProt Q07820); assay: PIxEL: protein-protein interaction in permeabilized cells by ELISA (Assay 5); assay type: cell-based; conditions: permeabilized RKO cells, biotin-BIM BH3 peptide 0.2 μM, serum free
T1 construct: this assay uses full length endogenous MCL1 protein at mitochondria outer membrane; endogenous in cells; host or cells: RKO colon cancer cell line
T1 sequence (Q07820 whole entry): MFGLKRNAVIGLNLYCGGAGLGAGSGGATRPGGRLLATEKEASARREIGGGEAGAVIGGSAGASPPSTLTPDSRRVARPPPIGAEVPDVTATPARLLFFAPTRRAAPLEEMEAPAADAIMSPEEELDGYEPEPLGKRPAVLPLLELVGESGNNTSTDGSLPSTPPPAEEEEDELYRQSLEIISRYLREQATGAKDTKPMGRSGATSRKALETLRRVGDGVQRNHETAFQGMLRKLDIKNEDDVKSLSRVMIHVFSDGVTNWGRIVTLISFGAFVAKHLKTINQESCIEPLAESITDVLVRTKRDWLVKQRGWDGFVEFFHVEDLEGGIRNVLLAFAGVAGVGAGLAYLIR
Experimental: PIxEL: Protein-Protein Interaction in Permeabilized Cells by ELISA
Most MCL1 protein molecules are localized at the mitochondria outer membrane and sequester pro-apoptotic proteins through binding of their BCL2 homology domain 3 (BH3 domain). MEB buffer (150 mM mannitol, 10 mM HEPES pH 7.5, 50 mM KCl, 20 μM EDTA, 20 μM EGTA, 5 mM potassium succinate, 0.1% protease-free BSA (SIGMA) with low dose digitonin (0.002%) permeabilizes plasma membrane while leaves live mitochondria, where MCL1 maintains its native localization and conformation. Unlike biophysical assays (e.g. TR-FRET) that use truncated recombinant MCL1 protein, this assay uses full length endogenous MCL1 protein at mitochondria outer membrane. It measures the interaction between MCL1 protein and biotinylated BIM BH3 peptide. Compounds can compete with BIM BH3 peptide to bind to MCL1 protein.
On day 1, RKO colon cancer cell line cells were plated at 0.8 million cells/ml, 100 μl/well in 96-well flat bottom TC plates (Corning). […] Each plate was tapped to make sure liquid covering entire bottom of wells and incubate at 37° C. overnight.
On the second day, MCL1 antibody was washed from ELISA plate. 250 μl Odyssey® Blocking Buffer (PBS) (Li-Cor) was added to each well, incubated at room temperature for at least 1 hour, then washed once with 250 μl 1×PBST. Plates with RKO cells were gently washed once with 100 μl/well PBS, once with 100 μl/well MEB buffer without digitonin, then 100 μl of MEB buffer with 0.002% digitonin was gently added to each well. Compounds were added with HP Tecan compound dispenser in 3-fold dilution series, highest dose 30 μM, 10-dose per compound in quadruplicates. Biotin-BIM peptide (synthesized by 21st Century) was added with HP Tecan compound dispenser at 0.2 μM immediately after the addition of compounds. Plates were rocked for 1 h at room temperature. Then MEB buffer was aspirated and 50 μl of CHAPS buffer (50 mM Tris-Cl, pH 7.4, 150 mM NaCl, 1% CHAPS, 1 mM EDTA, 1 mM EGTA, complete protease inhibitors (Roche), PhosSTOP (Roche)) was added to each well. Plates were rocked for 1 hour at 4° C., then 45 μl cell lysate from each well were transferred to ELISA plates coated with MCL1 antibody. Plates were incubated overnight in the cold room with rocking.
On the third day, ELISA plates were washed once with 250 μl 1×PBST. Streptavidin-poly-HRP (Thermo Fisher Scientific) was diluted to 20 ng/ml in Odyssey blocking buffer plus 0.05% Triton-100, and 100 μl was added to each well of the ELISA plate. Plates were incubated at RT for 1 hour with rocking, then washed with 100 μL 1×PBST for 3 times. Each SuperSignal ELISA Femto Maximum Sensitivity substrate was added to a 50-ml tube and mixed, then 100 μl of mixed substrate was added to each well. Plates were shaken for 1 minute then luminescence was measured by Envision plate reader […]. Signal of each well were normalized by no-compound control and no-cell control. IC50 was calculated using Graphic Pad PRISM software.

[5] = system: AMO-1; assay: Anti-proliferative effect in AMO-1 cells, CellTiter-Glo (Assay 7); assay type: cell-based
How it was run: as §1

[6] = system: A2780; assay: Anti-proliferative effect in A2780 cells, CellTiter-Glo (Assay 7); assay type: cell-based; conditions: several values per example
How it was run: as §1

[7] = MV-4-11, 72 hours incubation, CellTiter-Glo; several values per example; read-out: Antiproli MV-4-11
[8] = read-out: koff [1/s], SPR, immobilized MBP-MCL-1, 25° C., geometric mean
[9] = read-out: kon [1/M 1/s], SPR, immobilized MBP-MCL-1, 25° C., geometric mean
[10] = median, read-out: PIxEL [M] (median)
[11] = AMO-1, 72 hours incubation, CellTiter-Glo; several values per example; read-out: Antiproli AMO-1
[12] = read-out: Antiproli MV-4-11; MV-4-11, 72 hours incubation, CellTiter-Glo; several values per example
[13] = read-out: Antiproli AMO-1; AMO-1, 72 hours incubation, CellTiter-Glo; several values per example

Structure (SMILES) | Kd ([2]; KD [M], geometric mean) [M] | IC50 [3] [nM] | IC50 ([4]; PIxEL [M] (median)) | IC50 [5, 13] | further results
Cc1c2c(nn1C)COCc1ccccc1Cn1c(C(=O)O)c(CCCOc3cccc4cc(F)ccc34)c3ccc(Cl)c-2c31 (racemic) [Example 48, (rac)-3-Chloro-17-{3-[(6-fluoronaphthalen-1-yl)oxy]propyl}-4,5-dimethyl-5,7,9,14-tetrahydroindolo[7,1-fg]pyrazolo[3,4-d][2,8]benzoxazacycloundecine-16-carboxylic Acid] | 8e-09 |  |  |  | IC50 ([1]; Homo sapiens, MV4-11, 72 h, MV-4-11, 72 hours incubation, CellTiter-Glo; several values per example; read-out: Antiproli MV-4-11): 4130 nM; IC50 [1, 7]: 4810 nM; koff [2, 8]: 0.006 s⁻¹; kon [2, 9]: 750000 M⁻¹ s⁻¹
Cc1c2c(nn1C)COCc1ncccc1Cn1c(C(=O)O)c(CCCOc3cccc4ccccc34)c3cccc-2c31 (single isomer, unassigned; enantiomer 1) [Example 8, 4,5-Dimethyl-17-[3-(naphthalen-1-yloxy)propyl]-5,7,9,14-tetrahydropyrazolo[4′,3′:9,10]-pyrido[2′,3′:3,4][1,6]oxazacycloundecino[8,7,6-hi]indole-16-carboxylic acid-N-ethylethanamine Salt (Enantiomer 1)] | 3.4e-09 | > 20000 | 1.82e-05 |  | 
Cc1c2c(nn1C)COCc1ccccc1Cn1c(C(=O)O)c(CCCOc3cccc4ccccc34)c3ccc(Cl)c-2c31 (single isomer, unassigned; enantiomer 1) [Example 37, (−)-3-Chloro-4,5-dimethyl-17-[3-(naphthalen-1-yloxy)propyl]-5,7,9,14-tetrahydroindolo[7,1-fg]pyrazolo[3,4-d][2,8]benzoxazacycloundecine-16-carboxylic Acid (Enantiomer 1)] | 4.7e-09 | > 20000 | 1.61e-06 |  | koff [2, 8]: 0.011 s⁻¹; kon [2, 9]: 2.4e+06 M⁻¹ s⁻¹
CCc1nn(CCN2CCOCC2)c2c1-c1c(Cl)ccc3c(CCCOc4cccc5cc(F)ccc45)c(C(=O)O)n(c13)Cc1ccccc1COC2 (single isomer, unassigned; enantiomer 1) [Example 52, (−)-3-Chloro-4-ethyl-17-{3-[(6-fluoronaphthalen-1-yl)oxy]propyl}-6-[2-(morpholin-4-yl)ethyl]-6,7,9,14-tetrahydroindolo[7,1-fg]pyrazolo[3,4-d][2,8]benzoxazacycloundecine-16-carboxylic Acid (Enantiomer 1)] |  | > 20000 |  |  | IC50 [4, 10]: 3.68e-07 M; IC50 [5, 11]: 2270 nM; IC50 ([6]; A2780, 72 hours incubation, CellTiter-Glo, read-out: Antiproli A2780): 2.41e-06 M; Kd ([2]; geometric mean, read-out: KD): 1.5e-09 M; koff ([2]; read-out: koff [1/s]): 0.024 s⁻¹; kon ([2]; read-out: kon [1/M 1/s]): 1.6e+07 M⁻¹ s⁻¹
CCc1c2c(nn1C)COCc1ccccc1Cn1c(C(=O)O)c(CCCOc3cccc4cc(F)ccc34)c3ccc(Cl)c-2c31 (single isomer, unassigned; enantiomer 1) [Example 55, (−)-3-Chloro-4-ethyl-17-{3-[(6-fluoronaphthalen-1-yl)oxy]propyl}-5-methyl-5,7,9,14-tetrahydro-indolo[7,1-fg]pyrazolo[3,4-d][2,8]benzoxazacycloundecine-16-carboxylic Acid N-ethylethanamine Salt (Enantiomer 1)] | 3.9e-09 | 18000 | 3.11e-07 | 1190 nM | IC50 [1, 12]: 964 nM
CCc1nn(C)c2c1-c1c(Cl)ccc3c(CCCOc4cccc5cc(F)ccc45)c(C(=O)O)n(c13)Cc1ccccc1COC2 (single isomer, unassigned; enantiomer 1) [Example 58, (+)-3-Chloro-4-ethyl-17-{3-[(6-fluoronaphthalen-1-yl)oxy]propyl}-6-methyl-6,7,9,14-tetrahydro-indolo[7,1-fg]pyrazolo[3,4-d][2,8]benzoxazacycloundecine-16-carboxylic acid-N-ethylethanamine Salt (Enantiomer 1)] |  | 10600 |  |  | IC50 [4, 10]: 8.34e-07 M; IC50 [1, 7]: 1360 nM; IC50 [5, 11]: 1610 nM
Cc1c2c(nn1C)COCc1ccccc1Cn1c(C(=O)O)c(CCCOc3cccc4ccccc34)c3ccc(F)c-2c31 (single isomer, unassigned; enantiomer 1) [Example 68, (−)-3-Fluoro-4,5-dimethyl-17-{3-[(naphthalen-1-yl)oxy]propyl}-5,7,9,14-tetrahydroindolo[7,1-fg]pyrazolo[3,4-d][2,8]benzoxazacycloundecine-16-carboxylic acid-N-ethylethanamine Salt (Enantiomer 1)] |  | > 20000 | 2.16e-06 | 4400 nM and 4890 nM | IC50 ([6]; Homo sapiens, A2780, 72 h, read-out: Antiproli A2780 [M], A2780, 72 hours incubation, CellTiter-Glo): 2.9e-05 M
CCc1c2c(nn1C)COCc1ccccc1Cn1c(C(=O)O)c(CCCOc3cccc4cc(F)ccc34)c3ccc(Cl)c-2c31 (single isomer, unassigned; enantiomer 2) [Example 56, (+)-3-Chloro-4-ethyl-17-{3-[(6-fluoronaphthalen-1-yl)oxy]propyl}-5-methyl-5,7,9,14-tetrahydro-indolo[7,1-fg]pyrazolo[3,4-d][2,8]benzoxazacycloundecine-16-carboxylic Acid N-ethylethanamine Salt (Enantiomer 2)] |  |  | 2.35e-06 | 4200 nM | IC50 [1, 12]: 2770 nM
